According to patent US12509437B2, “Substituted thiophene carboxamides and derivatives thereof as microbicides” (Bayer Aktiengesellschaft, priority 2019, dated 2025):
Read-outs that look alike come from different tables or passages of the source.

Tests used:
[1] = LogP by HPLC on reversed phase columns (EEC directive 79/831 Annex V.A8); assay type: physicochemical; settings: reversed phase HPLC columns
How it was run: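 LogP derived from retention time, interpolated linearly between bracketing alkan-2-one standards (3 to 16 carbons). Where several values exist for one method, all are listed with "+"; UV spectra 200–400 nm at peak maxima gave lambda-max.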

[2] = system: Xanthomonas campestris pv. campestris; experiment: Xanthomonas campestris pv. campestris in vitro cell test; assay type: cell-based; settings: 24 h of incubation, read-out: efficacy (inhibition of bacteria growth; no direct activity); for inhibition at 5 ppm: 5 ppm of active ingredient; for inhibition at 20 ppm: 20 ppm of active ingredient
Method: (§1) • Solvent: DMSO • Culture medium: LB broth medium (Luria Broth Miller) Sigma • Inoculum: bacteria suspension Compounds were solubilized in DMSO and the solution used to prepare the required range of concentrations. The final concentration of DMSO used in the assay was ≤1%. Inoculum was prepared from a pre-culture of bacteria grown in liquid medium and diluted to the desired optical density (OD). Compounds were evaluated for their ability to inhibit bacteria growth in liquid culture assay. The compounds were added in the desired concentrations to culture medium containing the bacteria suspension. After 24 h of incubation, the efficacy of compounds was determined by spectrometric measurement of bacteria growth. Inhibition was determined by comparing the absorbance values in wells containing the compounds with the absorbance in control wells without active ingredients.

[3] = system: Colletotrichum lindemuthianum; experiment: Colletotrichum lindemuthianum in vitro cell test; assay type: cell-based; settings: 144 h, 6 days incubation, read-out: efficacy (inhibition of fungal growth; no direct activity); for inhibition at 5 ppm: 5 ppm of active ingredient; for inhibition at 20 ppm: 20 ppm of active ingredient
Method: (§2) • Solvent: DMSO • Culture medium: 14.6 g anhydrous D-glucose (VWR), 7.1 g Mycological Peptone (Oxoid), 1.4 g granulated Yeast Extract (Merck), QSP 1 liter • Inoculum: spores suspension Fungicides were solubilized in DMSO and the solution used to prepare the required range of concentrations. The final concentration of DMSO used in the assay was ≤[…]1%. A spore suspension of C. lindemuthianum was prepared and diluted to the desired spore density. Fungicides were evaluated for their ability to inhibit spores germination and mycelium growth in liquid culture assay. The compounds were added in the desired concentration to the culture medium with spores. After 6 days incubation, fungi-toxicity of compounds was determined by spectrometric measurement of mycelium growth. Inhibition of fungal growth was determined by comparing the absorbance values in wells containing the fungicides with the absorbance in control wells without fungicides.

[4] = system: salicylate responsive promoter sequence of the PR1 (pathogenesis-related protein I) gene (AT2G14610); experiment: Induction of defense gene expression in Arabidopsis thaliana (PR1 promoter-GFP reporter plants); assay type: in vivo; settings: 72 h, 3rd day after spraying, mock treated leaves set as 1.00, read-out: relative fluorescence value
How it was run: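 Transgenic A. thaliana carrying GFP under the salicylate-responsive PR1 promoter, grown five days, then sprayed with compounds. Whole-plant fluorescence imaged and quantified on day 3 post-spray, expressed relative to mock-treated leaf background set at 1.00.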

[5] = system: Pseudomonas syringae pv. tomato; experiment: Pseudomonas syringae pv. tomato in vitro cell test; assay type: cell-based; settings: 20 ppm of active ingredient, 24 h of incubation, read-out: efficacy (inhibition of bacteria growth; no direct activity)
Method: as §1

[6] = system: Colletotrichum lindemuthianum; experiment: In vivo preventive test on Colletotrichum lindemuthianum (Anthracnose on bean); settings: Colletotrichum lindemuthianum, 144 h, sprayed 72 hours before inoculation, evaluated 6 days after inoculation, read-out: efficacy; for pest or weed control at 500 ppm: 500 ppm of active ingredient; for pest or weed control at 31 ppm: 31 ppm of active ingredient; for pest or weed control at 125 ppm: 125 ppm of active ingredient
Method: The tested active ingredients were prepared by homogenization in a mixture of acetone/Dimethyl sulfoxide/Tween®, and then diluted with water to obtain the desired active material concentration.
The young plants of bean were treated by spraying the active ingredient prepared as described above. Control plants were treated only with an aqueous solution of acetone/Dimethyl sulfoxide/Tween®.
After 72 hours, the plants were contaminated by spraying the leaves with an aqueous suspension of Colletotrichum lindemuthianum spores. The contaminated bean plants were incubated for 24 hours at 20° C. and at 100% relative humidity and then for 5 days at 20° C. and at 90% relative humidity.
The test was evaluated 6 days after the inoculation. 0% means an efficacy which corresponds to that of the control plants while an efficacy of 100% means that no disease was observed.

[7] = system: Xanthomonas campestris pv. campestris; experiment: In vivo preventive test on Xanthomonas campestris pv. campestris (black rot on cabbage); settings: Xanthomonas campestris, sprayed 72 hours before inoculation, evaluated 8 or 10 days after inoculation, read-out: efficacy; for pest or weed control at 500 ppm: 500 ppm of active ingredient; for pest or weed control at 125 ppm: 125 ppm of active ingredient; for pest or weed control at 31 ppm: 31 ppm of active ingredient
How it was run: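 Young cabbage plants sprayed preventively with compound formulated in acetone/DMSO/Tween and diluted in water, then inoculated 72 h later with a bacterial spray. Kept at 27° C, 95% relative humidity; disease scored after 8 or 10 days as % efficacy versus solvent-treated controls (0% = control, 100% = no disease).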

Peronospora parasitica = experiment: In vivo preventive test on Peronospora parasitica (Crucifer downy mildew) on cabbage; settings: Hyaloperonospora parasitica, 120 h, sprayed 72 hours before inoculation, evaluated 5 days after inoculation, read-out: efficacy; for pest or weed control at 31 ppm: 31 ppm of active ingredient; for pest or weed control at 125 ppm: 125 ppm of active ingredient; for pest or weed control at 500 ppm: 500 ppm of active ingredient
How it was run: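 Preventive protocol: spore inoculation followed compound spraying by 72 h, with 5 days' incubation at 20 °C and 100% relative humidity. Disease was rated 5 days after inoculation against solvent-only plants (0% = control level, 100% = disease-free).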

Uromyces appendiculatus = experiment: In vivo preventive test on Uromyces appendiculatus (bean rust); settings: 240 h, sprayed 72 hours before inoculation, evaluated 10 days after inoculation, read-out: efficacy; for pest or weed control at 125 ppm: 125 ppm of active ingredient; for pest or weed control at 500 ppm: 500 ppm of active ingredient
How it was run: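 Young bean plants sprayed with compound in acetone/DMSO/Tween diluted in water, then inoculated 72 h later with spore suspension. Incubated 24 h at 20° C., 100% RH, then 9 days at 20° C., 70-80% RH. Efficacy scored 10 days post-inoculation, 0% = untreated-control level, 100% = no disease.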

Alternaria alternata = Alternaria alternata in vitro cell test; assay type: cell-based; settings: 120 h, 5 days incubation, read-out: efficacy (inhibition of fungal growth; no direct activity); for inhibition at 5 ppm: 5 ppm of active ingredient; for inhibition at 20 ppm: 20 ppm of active ingredient
Method: as §2, with “of A. alternata” for “of C. lindemuthianum”, “inhibit spore” for “inhibit spores”, “After 5” for “After 6”

[8] = preparation examples, method not indicated, read-out: Log P

Compound | chromatographic logP ([1]; method [a]) | inhibition at 5 ppm [2] [%] | inhibition at 20 ppm [2] [%] | inhibition at 5 ppm [3] [%] | fold induction at 75 ppm [4] | fold induction at 300 ppm [4] | inhibition at 20 ppm [5] [%] | pest or weed control at 500 ppm [6] [%] | pest or weed control at 31 ppm (Peronospora parasitica) [%] | pest or weed control at 125 ppm (Peronospora parasitica) [%] | pest or weed control at 500 ppm (Peronospora parasitica) [%] | pest or weed control at 500 ppm (Uromyces appendiculatus) [%] | inhibition at 5 ppm (Alternaria alternata) [%] | inhibition at 20 ppm (Alternaria alternata) [%] | inhibition at 20 ppm [3] [%] | pest or weed control at 125 ppm [6] [%] | pest or weed control at 125 ppm [7] [%] | other results
CCOC(=O)C(CO)NC(=O)c1sc(Br)c(Br)c1C (stereo not drawn) [I.006] | 2.58 | ≤ 30 | ≤ 30 | ≤ 30 | > 2 | > 2 | ≤ 30 | 70 to 79 | 80 to 89 | 90 to 100 | 90 to 100 | 90 to 100 | ≤ 30 | ≤ 30 |  |  |  | pest or weed control at 500 ppm [7]: 80 to 89%; pest or weed control at 31 ppm (Uromyces appendiculatus; 31 ppm of active ingredient): 90 to 100%; pest or weed control at 125 ppm (Uromyces appendiculatus): 80 to 89%
CCOC(=O)[C@@H](NC(=S)c1sc(Br)c(Br)c1C)C(C)C [I.023, ethyl N-[(4,5-dibromo-3-methyl-2-thienyl)carbonothioyl]valinate] |  | ≤ 30 | ≤ 30 | ≤ 30 |  | > 2 | ≤ 30 | 90 to 100 | 80 to 89 | 90 to 100 | 90 to 100 |  | ≤ 30 | ≤ 30 | ≤ 30 | 90 to 100 | 80 to 89 | chromatographic logP [1, 8]: 5.22; pest or weed control at 31 ppm [6]: 90 to 100%; pest or weed control at 500 ppm [7]: 70 to 79%
Cc1c(C(=S)N[C@H](C(=O)O)C(C)C)sc(Br)c1Br [I.031, N-[(4,5-dibromo-3-methyl-2-thienyl)carbonothioyl]valine] |  | ≤ 30 | ≤ 30 | ≤ 30 | > 2 | > 2 | ≤ 30 | 90 to 100 |  | 90 to 100 | 90 to 100 | 70 to 79 | ≤ 30 | ≤ 30 | ≤ 30 |  |  | chromatographic logP [1, 8]: 3.72
COC(=O)C(Cc1c[nH]cn1)NC(=O)c1sc(Br)c(Br)c1C (stereo not drawn) [I.033] | 1.5 | ≤ 30 | ≤ 30 | ≤ 30 |  | > 2 | ≤ 30 | 90 to 100 |  | 70 to 79 | 80 to 89 | 90 to 100 | ≤ 30 | ≤ 30 | ≤ 30 | 80 to 89 | 70 to 79 | pest or weed control at 31 ppm [7]: 70 to 79%
CCOC(=O)C(CO)NC(=O)c1sc(Cl)c(Cl)c1C (stereo not drawn) [I.039] | 2.48 | ≤ 30 | ≤ 30 | ≤ 30 | > 2 | > 2 | ≤ 30 | 90 to 100 | 90 to 100 | 90 to 100 | 90 to 100 | 80 to 89 | ≤ 30 | ≤ 30 | ≤ 30 |  | 70 to 79 | pest or weed control at 31 ppm [7]: 70 to 79%
COC(=O)C(CC(F)F)NC(=O)c1sc(Cl)c(Cl)c1C (stereo not drawn) [I.043] | 3.25 | ≤ 30 | ≤ 30 | ≤ 30 |  | > 2 | ≤ 30 | 90 to 100 | 90 to 100 | 90 to 100 | 90 to 100 | 90 to 100 | ≤ 30 | ≤ 30 |  | 90 to 100 |  | pest or weed control at 31 ppm [6]: 90 to 100%; pest or weed control at 125 ppm (Uromyces appendiculatus): 80 to 89%
CCOC(=O)C(CC(N)=O)NC(=O)c1sc(Cl)c(Cl)c1C (stereo not drawn) [I.045] | 2.28 | ≤ 30 | ≤ 30 | ≤ 30 |  | > 2 | ≤ 30 | 80 to 89 | 90 to 100 | 90 to 100 | 90 to 100 | 90 to 100 | ≤ 30 | ≤ 30 | ≤ 30 |  |  | 
